{"source": "patent US11186807B2", "about": "“Reducing acetate ester production in yeast” (VIB VZW, priority 2017, dated 2021)", "test_system": "respiration in yeast (S288c and Hybrid A)", "assay": "Acetate ester production in mini-scale yeast fermentation with or without Antimycin A", "format": "cell-based, Saccharomyces cerevisiae", "conditions": "3 mg/L Antimycin A in medium; genetic backgrounds S288c and Hybrid A; FIG. 7B", "description": "One of the main functions of the IMP complex is processing of subunits of the respiration chain. Given the surprising finding that genetic inference with the IMP complex reduces the production of acetate esters (see Example 5 and 8), we wondered whether respiration in general modulates acetate ester production. First, yeasts strains were developed in which five genes known to be crucial for respiration (i.e. CBS1, COR1, COX9, QCR9 and COX12) were separately deleted and subsequently were used in a fermentation experiment to determine aroma production. All selected genes function independently from the IMP complex. […] More precisely, an experiment was performed in which acetate ester production of a yeast strain was measured in medium with or without supplementation of 3 mg/L Antimycin A, a chemical compound blocking the respiratory pathway (Kim et al 1999 J Am Chem Soc 121:4902). […]\nPhenotyping of the individual segregants for IA production was performed using an in situ approach, and was conducted as follows: the segregants were streaked from the −80° C. stock on YPGlu 2% agar plates for 48 h at 30° C. […] After 96 h, the fermentation was ended, excess CO2 was once again released by brief opening of the vials, and the vials were measured using gas chromatography (see further). […]", "data": [{"substance": "Antimycin A", "values": [{"measurement": "drop of isoamyl acetate production", "result": "about 50%"}]}]}
